Measurements: US20050271723A1, “Dosage forms for treatment of benign prostatic hyperplasia” (Threshold Pharmaceuticals, Inc., priority 2003, published 2005)
“Also recorded” adds a separate entry of the source.

How the values were obtained:
[1] = tested on: HIF-1α; assay: HIF-1α expression in LNCaP cells (immunoblot of nuclear and whole cell extracts); format: cell-based, human; conditions: hypoxic conditions (oxygen level <0.1%)
From the text: (§1) See Franklin et al; 1995. […] 20108 USA. Methods: […]

[2] = tested on: HIF-1α; assay: HIF-1α expression in PC3 cells (immunoblot of nuclear and whole cell extracts); format: cell-based, human; conditions: normoxic and hypoxic conditions, 4 hours, dose-dependent
From the text: as §1

[3] = tested on: actin, caspase 3, NF-κB, IκBα; assay: Protein levels of actin, caspase 3, NF-κB, IκBα in prostate cell lines (immunoblot); format: cell-based, human; conditions: except at 800 μM concentration
Procedure: Methods: Cells were plated at a density of 5×10^5 cells into a dish, and then maintained in 37° C. incubator (5% CO2) for 2 days. Prior to the assay, cells were rinsed twice with pre-warmed (37° C.) RPMI-1640 Medium (ATCC No. 30-2001; 10 mM HEPES; 1 mM sodium pyruvate; 2 mM L-glutamine; 4500 mg glucose/L; 1500 mg sodium bicarbonate/L). Cells were incubated with 2 ml culture medium in the absence or presence of lonidamine at different concentrations for 4 hours at 37° C. either under normoxia or hypoxia (oxygen level<0.1%). At the end of the incubation, the dish was placed on ice, and the cells were washed rapidly twice with cold PBS buffer (4° C.). For nuclear extracts, cells were lysed with buffer A (10 mM Tris, pH7.5; 1.5 mM MgCl2; 10 mM KCl and protease inhibitors and buffer C (0.5 M NaCl; 20 mM Tris pH7.5; 1.5 mM MgCl2; 20% glycerol and protease inhibitors), sequentially. The protease inhibitors used in the experiments were a cocktail of five protease inhibitors (500 mM AEBSF-HCl, 1 mg/ml Aprotinin, 1 mM E-64, 500 mM EDTA and 1 mM Leupeptin; Calbiochem NO 539131). For whole cell lysate, cells were lysed with 150 mM NaCl; 10 mM Tris ph7.5; 10 mM EDTA; 1% Triton X-100; 0.5% Deoxycholate, and protease inhibitors. The protein concentration was measured using a Bio-Rad protein assay. Equal amounts of protein were loaded on a SDS-PAGE gel. […]

[4] = tested on: LNCaP cells; assay: Apoptosis assay (caspase 3 activity) in LNCaP cells; format: cell-based, human; conditions: citrate-producing cells, 6 h
Procedure: (§2) Immunoblotting: Immunoblotting was carried out as described in Example 2. […] Apoptosis Assay: […] Lonidamine was added into each well at different concentrations, and then incubated for 6 h at 37° C. To assess the caspase 3 activity, the homogeneous buffer and caspase 3 substrate (Promega No G7791; Promega Corporation, 2800 Woods Hollow Road, Madison Wis. USA 53711) were added into each well in the presence or absence of caspase 3 inhibitor (Promega No G5961). The fluorescence intensity of cleaved substrate was determined using a fluorescence plate reader at excitation 485 nm and emission 530 nm.

[5] = tested on: PC3 cells; assay: Apoptosis assay (caspase 3 activity) in PC3 cells; format: cell-based, human; conditions: PC3, citrate-oxidizing cells; 6 h
Procedure: as §2

[6] = tested on: human prostate epithelial cells; assay: Apoptosis assay in primary cultures of human prostate epithelial cells; format: cell-based
Procedure: (§3) Primary Cell Cultures: Primary cultures of human prostate epithelial cells (Cambrex No. CC-2555) and human prostate stromal cells (Cambrex No. CC-2508) were obtained from Cambrex Bio Science Rockland, Inc. (191 Thomaston Street, Rockland, Me. 04841). Apoptosis Assay: […] Lonidamine was added into each well at different concentrations, and then incubated for 6 h at 37° C. To assess the caspase 3 activity, the homogeneous buffer and caspase 3 substrate (Promega No G7791; Promega Corporation, 2800 Woods Hollow Road, Madison Wis. USA 53711) were added into each well in the presence or absence of caspase 3 inhibitor (Promega No G5961). The fluorescence intensity of cleaved substrate was determined using a fluorescence plate reader at excitation 485 nm and emission 530 nm.

[7] = tested on: human prostate stromal cells; assay: Apoptosis assay in primary cultures of human prostate stromal cells; format: cell-based; conditions: 6 h
Procedure: as §3

[8] = higher doses of lonidamine; usually mild; cited from earlier work

For `O=C(O)c1nn(Cc2ccc(Cl)cc2Cl)c2ccccc12` [lonidamine, 1-(2,4-dichlorobenzyl)-1H-indazole-3-carboxylic acid], the “effect on HIF-1α expression, LNCaP compared with PC3 cells” value [1] was “more pronounced in LNCaP cells than in PC3 cells”, the “level of HIF-1α protein in nuclear and whole-cell extracts” value [2] was “reduced the level of HIF-1α protein” and the “inhibition of protein levels of actin, caspase 3, NF-κB, or IκBα” value [3] was “no detectable inhibition”. For the same molecule, the “activation of caspase 3 (apoptosis)” value [4] was “induced activation of caspase 3”, the “activation of caspase 3 (apoptosis), LNCaP compared with PC3 cells” value [5] was “significantly greater in LNCaP cells” and the “induction of apoptosis, epithelial compared with stromal cells” value ([6]; primary cultures) was “significantly greater in primary cultures of prostate epithelial cells”. For the same molecule, the induction of apoptosis ([6]; primary prostate epithelial cells, 6 h) was “induced apoptosis only in prostate epithelial cells in a dose-dependent manner; also recorded: induces apoptosis”, the induction of apoptosis [7] was “induction of apoptosis was not observed” and the side effects [8] was “myalgia and testicular pain”.
